As a reminder, the IC50 is the concentration that gives 50% inhibition. Lower therefore signals higher potency. As a reminder, the inhibition is the share of the control response that was lost under treatment. Lower therefore signals a weak effect.

The values that follow come from ChEMBL document CHEMBL1131390, “Inhibition of lipid peroxidation mediated by indolizines” (Bioorg Med Chem Lett, 1998).

For the first assay, the species on record is Rattus norvegicus. Kind of assay: Compound was tested in vitro for inhibitory activity against lipid peroxidation after 30 minutes. Type of assay: functional. Particulars: 0.5 h.
`CC(=O)Oc1c(-c2ccccc2)c(-c2ccccc2)n2ccccc12` displayed an IC50 of 11.8 µM. This lies in the double-digit micromolar range.
For the compound `CC(=O)Oc1c(-c2ccccc2)c(-c2ccccc2)n2ccc(C(=O)c3ccccc3)cc12`, the IC50 turned out to be 2.5 µM.
For the compound `CC(=O)Oc1c(-c2ccccc2)c(-c2ccccc2)n2cc(C(C)=O)ccc12`, half-maximal inhibition (IC50) was put at 3.5 µM.
Consider `COC(=O)Oc1c(-c2ccccc2)c(-c2ccccc2)n2ccc(C=O)cc12`, for which the IC50 worked out at 2.6 µM.
Compound `CC(=O)Oc1c(-c2ccccc2)c(-c2ccccc2)n2ncccc12` yielded an IC50 of 3.1 µM.
With `CC(=O)Oc1c(-c2ccccc2)c(-c2ccccc2)n2ccc(C=O)cc12`, the IC50 was determined as 2.9 µM.
On the same count and under the same terms, under `CC(=O)Oc1c(-c2ccccc2)c(-c2ccccc2)n2ccc(C(C)=O)cc12` stands 5.3 µM.
`COc1c(-c2ccccc2)c(-c2ccccc2)n2ccc(C=O)cc12` registered an IC50 of 4.2 µM. The IC50 values of the last two compounds are within 1.5-fold of each other.
The same measure, in the same setting: under `O=Cc1ccn2c(-c3ccccc3)c(-c3ccccc3)c(OC(=O)Nc3ccccc3)c2c1` stands 3.2 µM.

The species named for a further assay is Rattus norvegicus. Description: Compound was tested in vitro for inhibitory activity against lipid peroxidation at concentration 100 uM. Format: functional, organism-based.
Conditions: not given
`CCCCCCCCCCCCCCCC(=O)Oc1c(-c2ccccc2)c(-c2ccccc2)n2ccc(C=O)cc12` came in with an inhibition of 9%.
`CC(=O)Oc1c(-c2ccccc2)c(-c2ccccc2)n2ncc3ccccc3c12` came in with an inhibition of 28%.
